Measured values from the supplement of paper PMC10307832.

Key:
Experiment in all cases: relative viability (nuclei count vs DMSO), 5 days (fraction); higher = more cells survive
[1] = compound: CC1=C(C(=NN1)C)CC2=C(C3=C(S2)N(C(=O)N(C3=O)C)CC(C)C)C(=O)N4C[C@@H](CO4)O + Nc1nc2[nH]cc(CCc3ccc(C(=O)N[C@@H](CCC(=O)O)C(=O)O)cc3)c2c(=O)[nH]1 [Pemetrexed] (partner 0.2 µM)
Procedure, shortened: (§1)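 Relative viability equals treated-well nuclei counts divided by vehicle-well nuclei counts. Counts came from 4× images of lung cancer cell lines grown in 1536-well plates for 5 days after pin-tool dosing on the day after seeding. Dosing used one drug alone or a fixed anchor-drug dose plus five library-drug doses (not always all listed) in √10 steps, and values are medians of duplicate plates.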

IDH-C35 + OSI-027 = compound: Cc1ccccc1C(C(=O)NC1CCCCC1)N(C(=O)Cn1ccnc1C)c1cccc(F)c1 [IDH-C35] + COc1cccc2cc(-c3nc([C@H]4CC[C@H](C(=O)O)CC4)n4ncnc(N)c34)[nH]c12 [OSI-027] (partner 0.5 µM)
Procedure, shortened: as §1

IDH-C35 + Decitabine = compound: Cc1ccccc1C(C(=O)NC1CCCCC1)N(C(=O)Cn1ccnc1C)c1cccc(F)c1 [IDH-C35] + Nc1ncn([C@H]2C[C@H](O)[C@@H](CO)O2)c(=O)n1 [Decitabine] (partner 2 µM)
Procedure, shortened: as §1

IDH-C35 + Olaparib = compound: Cc1ccccc1C(C(=O)NC1CCCCC1)N(C(=O)Cn1ccnc1C)c1cccc(F)c1 [IDH-C35] + O=C(c1cc(Cc2n[nH]c(=O)c3ccccc23)ccc1F)N1CCN(C(=O)C2CC2)CC1 [Olaparib] (partner 8 µM)
Procedure, shortened: as §1

With HOP-62 as the cell line, how does the relative viability ([1]; first compound 0.0025 µM) read?
The relative viability was 0.357.

And the relative viability ([1]; first compound 0.007906 µM)?
Its relative viability is 0.332.

And the relative viability ([1]; first compound 0.025 µM)?
Its relative viability is 0.217.

What about the relative viability ([1]; first compound 0.07906 µM) of the same cell line?
The relative viability was 0.281.

What about the relative viability ([1]; first compound 0.25 µM) of the same cell line?
Its relative viability is 0.356.

And the relative viability (IDH-C35 + OSI-027; first compound 0.08 µM)?
The relative viability was 0.895.

What about the relative viability (IDH-C35 + OSI-027; first compound 0.253 µM) of the same cell line?
Its relative viability is 0.801.

And the relative viability (IDH-C35 + OSI-027; first compound 0.8 µM)?
The relative viability was 0.76.

And the relative viability (IDH-C35 + OSI-027; first compound 2.53 µM)?
The relative viability was 0.79.

And the relative viability (IDH-C35 + OSI-027; first compound 8 µM)?
The relative viability was 0.78.

And the relative viability (IDH-C35 + Decitabine; first compound 0.08 µM)?
The relative viability was 0.175.

What about the relative viability (IDH-C35 + Decitabine; first compound 0.253 µM) of the same cell line?
Its relative viability is 0.237.

What about the relative viability (IDH-C35 + Decitabine; first compound 0.8 µM) of the same cell line?
The relative viability was 0.229.

And the relative viability (IDH-C35 + Decitabine; first compound 2.53 µM)?
Its relative viability is 0.206.

And the relative viability (IDH-C35 + Decitabine; first compound 8 µM)?
Its relative viability is 0.206.

And the relative viability (IDH-C35 + Olaparib; first compound 0.08 µM)?
Its relative viability is 0.46.

And the relative viability (IDH-C35 + Olaparib; first compound 0.253 µM)?
Its relative viability is 0.222.

What about the relative viability (IDH-C35 + Olaparib; first compound 0.8 µM) of the same cell line?
Its relative viability is 0.272.

And the relative viability (IDH-C35 + Olaparib; first compound 8 µM)?
The relative viability was 0.39.

Which relative viability ([1]; first compound 0.0025 µM) does the source give for NCI-H520 here?
Its relative viability is 0.731.

What about the relative viability ([1]; first compound 0.007906 µM) of the same cell line?
The relative viability was 0.711.

And the relative viability ([1]; first compound 0.025 µM)?
Its relative viability is 0.468.

What about the relative viability ([1]; first compound 0.07906 µM) of the same cell line?
The relative viability was 0.526.

And the relative viability ([1]; first compound 0.25 µM)?
The relative viability was 0.504.

What about the relative viability (IDH-C35 + OSI-027; first compound 0.08 µM) of the same cell line?
Its relative viability is 0.257.

And the relative viability (IDH-C35 + OSI-027; first compound 0.253 µM)?
The relative viability was 0.243.

What about the relative viability (IDH-C35 + OSI-027; first compound 0.8 µM) of the same cell line?
The relative viability was 0.268.

And the relative viability (IDH-C35 + OSI-027; first compound 2.53 µM)?
The relative viability was 0.276.

What about the relative viability (IDH-C35 + OSI-027; first compound 8 µM) of the same cell line?
Its relative viability is 0.265.

What about the relative viability (IDH-C35 + Decitabine; first compound 0.08 µM) of the same cell line?
The relative viability was 0.407.

What about the relative viability (IDH-C35 + Decitabine; first compound 0.253 µM) of the same cell line?
The relative viability was 0.462.

And the relative viability (IDH-C35 + Decitabine; first compound 0.8 µM)?
Its relative viability is 0.538.

And the relative viability (IDH-C35 + Decitabine; first compound 2.53 µM)?
Its relative viability is 0.508.

What about the relative viability (IDH-C35 + Decitabine; first compound 8 µM) of the same cell line?
Its relative viability is 0.486.

What about the relative viability (IDH-C35 + Olaparib; first compound 0.08 µM) of the same cell line?
The relative viability was 0.309.

What about the relative viability (IDH-C35 + Olaparib; first compound 0.253 µM) of the same cell line?
The relative viability was 0.284.

And the relative viability (IDH-C35 + Olaparib; first compound 0.8 µM)?
Its relative viability is 0.313.

What about the relative viability (IDH-C35 + Olaparib; first compound 2.53 µM) of the same cell line?
Its relative viability is 0.308.

What about the relative viability (IDH-C35 + Olaparib; first compound 8 µM) of the same cell line?
The relative viability was 0.351.

NCI-H1755 was tested. Which relative viability ([1]; first compound 0.0025 µM) did it give?
Its relative viability is 0.42.

And the relative viability ([1]; first compound 0.007906 µM)?
Its relative viability is 0.424.

And the relative viability ([1]; first compound 0.025 µM)?
The relative viability was 0.424.

What about the relative viability ([1]; first compound 0.07906 µM) of the same cell line?
The relative viability was 0.425.

What about the relative viability ([1]; first compound 0.25 µM) of the same cell line?
The relative viability was 0.422.

What about the relative viability (IDH-C35 + OSI-027; first compound 0.08 µM) of the same cell line?
Its relative viability is 0.754.

What about the relative viability (IDH-C35 + OSI-027; first compound 0.253 µM) of the same cell line?
The relative viability was 0.64.

What about the relative viability (IDH-C35 + OSI-027; first compound 0.8 µM) of the same cell line?
The relative viability was 0.707.

And the relative viability (IDH-C35 + OSI-027; first compound 2.53 µM)?
Its relative viability is 0.68.

What about the relative viability (IDH-C35 + OSI-027; first compound 8 µM) of the same cell line?
Its relative viability is 0.706.

And the relative viability (IDH-C35 + Decitabine; first compound 0.08 µM)?
The relative viability was 0.685.

What about the relative viability (IDH-C35 + Decitabine; first compound 0.253 µM) of the same cell line?
The relative viability was 0.639.

And the relative viability (IDH-C35 + Decitabine; first compound 0.8 µM)?
The relative viability was 0.757.

And the relative viability (IDH-C35 + Decitabine; first compound 2.53 µM)?
Its relative viability is 0.708.

What about the relative viability (IDH-C35 + Decitabine; first compound 8 µM) of the same cell line?
The relative viability was 0.708.

What about the relative viability (IDH-C35 + Olaparib; first compound 0.08 µM) of the same cell line?
Its relative viability is 0.923.

What about the relative viability (IDH-C35 + Olaparib; first compound 0.253 µM) of the same cell line?
The relative viability was 0.806.

What about the relative viability (IDH-C35 + Olaparib; first compound 0.8 µM) of the same cell line?
Its relative viability is 0.884.

What about the relative viability (IDH-C35 + Olaparib; first compound 2.53 µM) of the same cell line?
Its relative viability is 0.847.

And the relative viability (IDH-C35 + Olaparib; first compound 8 µM)?
The relative viability was 0.866.

Which results are given for NCI-H2023?
relative viability ([1]; first compound 0.0025 µM): 0.249; relative viability ([1]; first compound 0.007906 µM): 0.258; relative viability ([1]; first compound 0.025 µM): 0.224; relative viability ([1]; first compound 0.07906 µM): 0.233; relative viability ([1]; first compound 0.25 µM): 0.225; relative viability (IDH-C35 + OSI-027; first compound 0.08 µM): 0.418; relative viability (IDH-C35 + OSI-027; first compound 0.253 µM): 0.417; relative viability (IDH-C35 + OSI-027; first compound 0.8 µM): 0.426; relative viability (IDH-C35 + OSI-027; first compound 2.53 µM): 0.411; relative viability (IDH-C35 + OSI-027; first compound 8 µM): 0.307; relative viability (IDH-C35 + Decitabine; first compound 0.08 µM): 0.231; relative viability (IDH-C35 + Decitabine; first compound 0.253 µM): 0.22; relative viability (IDH-C35 + Decitabine; first compound 0.8 µM): 0.259; relative viability (IDH-C35 + Decitabine; first compound 2.53 µM): 0.233; relative viability (IDH-C35 + Decitabine; first compound 8 µM): 0.265; relative viability (IDH-C35 + Olaparib; first compound 0.08 µM): 0.513; relative viability (IDH-C35 + Olaparib; first compound 0.253 µM): 0.455; relative viability (IDH-C35 + Olaparib; first compound 0.8 µM): 0.503; relative viability (IDH-C35 + Olaparib; first compound 2.53 µM): 0.474; relative viability (IDH-C35 + Olaparib; first compound 8 µM): 0.446

For NCI-H2009, which relative viability ([1]; first compound 0.0025 µM) is on record?
Its relative viability is 1.09.

And the relative viability ([1]; first compound 0.007906 µM)?
Its relative viability is 1.03.

And the relative viability ([1]; first compound 0.025 µM)?
Its relative viability is 0.955.

What about the relative viability ([1]; first compound 0.07906 µM) of the same cell line?
Its relative viability is 1.03.

And the relative viability ([1]; first compound 0.25 µM)?
The relative viability was 1.06.

And the relative viability (IDH-C35 + OSI-027; first compound 0.08 µM)?
The relative viability was 0.654.

And the relative viability (IDH-C35 + OSI-027; first compound 0.253 µM)?
Its relative viability is 0.643.

And the relative viability (IDH-C35 + OSI-027; first compound 0.8 µM)?
Its relative viability is 0.685.

And the relative viability (IDH-C35 + OSI-027; first compound 2.53 µM)?
Its relative viability is 0.668.

What about the relative viability (IDH-C35 + OSI-027; first compound 8 µM) of the same cell line?
Its relative viability is 0.569.

What about the relative viability (IDH-C35 + Decitabine; first compound 0.08 µM) of the same cell line?
The relative viability was 0.354.

And the relative viability (IDH-C35 + Decitabine; first compound 0.253 µM)?
Its relative viability is 0.408.

What about the relative viability (IDH-C35 + Decitabine; first compound 0.8 µM) of the same cell line?
Its relative viability is 0.387.

And the relative viability (IDH-C35 + Decitabine; first compound 2.53 µM)?
The relative viability was 0.321.

And the relative viability (IDH-C35 + Decitabine; first compound 8 µM)?
Its relative viability is 0.372.

And the relative viability (IDH-C35 + Olaparib; first compound 0.08 µM)?
The relative viability was 0.679.

What about the relative viability (IDH-C35 + Olaparib; first compound 0.253 µM) of the same cell line?
Its relative viability is 0.74.

What about the relative viability (IDH-C35 + Olaparib; first compound 0.8 µM) of the same cell line?
The relative viability was 0.613.

What about the relative viability (IDH-C35 + Olaparib; first compound 2.53 µM) of the same cell line?
Its relative viability is 0.655.

What about the relative viability (IDH-C35 + Olaparib; first compound 8 µM) of the same cell line?
Its relative viability is 0.669.
